Test results: patent publication US10392383B2, “3-(1H-benzo[d]imidazol-2-yl)-1H-pyrazolo[4,3-b]pyridines and therapeutic uses thereof” (Samumed, LLC, priority 2015, dated 2019)

Legend:
Format in all cases: cell-based
[1] = test system: Wnt activity (Sp5-Luc reporter, Wnt-responsive promoter) in SW480 colon carcinoma cells; assay: Wnt activity screening assay: Sp5-Luc reporter gene assay in SW480 cells; settings: Homo sapiens, overnight incubation, 10-point curve starting from 10 μM
In short: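 Luminescence (BrightGlo) was normalised to DMSO-only wells and fitted with a four-parameter variable-slope model for EC50; beyond 10 μM, % inhibition at 10 μM is given. Stable Sp5-Luc SW480 reporter cells, 4,000/well in 1% FBS, were exposed overnight at 37 °C to compounds, top 10 μM, 1:3 dilutions, 0.1% DMSO.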

[2] = test system: SW480 colon cancer cells; assay: Cell viability assay (CellTiter-Blue) in SW480 cells; settings: Homo sapiens, 96 h, four days, CellTiter-Blue, 10 μM to 0.0045 μM
In short: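 Four-day viability readout in SW480 cells: compound at 0.0045–10 μM (1:3 series), DMSO controls in eight replicates, CellTiter-Blue fluorescence after ~3 h. Values are regression-derived EC50s, or percent inhibition at 10 μM when EC50 exceeds 10 μM.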

[3] = test system: primary human fibroblasts derived from IPF patients (LL29 cells) treated with TGF-β1; assay: Inhibition of the fibrotic process: αSMA staining in TGF-β1-treated LL29 fibroblasts; settings: Fibroblast; for EC50: 96 h, LL29 fibroblasts treated with TGF-β1 (20 ng/mL), 4 days, Table 4
In short: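 EC50 from triplicate-well dose-response fits of % αSMA-positive cells, normalized to TGF-β1-stimulated DMSO controls, with SYTOX-positive dead cells excluded. LL29 IPF fibroblasts received compound at 10 μM–1.87 nM (0.1% DMSO) plus 20 ng/mL TGF-β1 for 4 days in 1% FBS medium; above 10 μM, % inhibition at 10 μM reported.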

EC50 [1] | EC50 [2] | Structure (SMILES) | EC50 [3] | inhibition at 10 µM ([3]; 10 μM, LL29 fibroblasts treated with TGF-β1, Table 4, read-out: percent inhibition at 10 μM (given in parentheses for EC50 >10 μM))
6550 nM | 4540 nM | Oc1cncc(-c2ccc3[nH]nc(-c4nc5c(-c6cccc(F)c6)cccc5[nH]4)c3n2)c1 [Compound 517, 5-(3-(4-(3-Fluorophenyl)-1H-benzo[d]imidazol-2-yl)-1H-pyrazolo[4,3-b]pyridin-5-yl)pyridin-3-ol] | 1540 nM | 
3140 nM | 3310 nM | c1cncc(-c2cccc3[nH]c(-c4n[nH]c5ccc(-c6cncc(OC7CCCCC7)c6)nc45)nc23)c1 [Compound 559, 5-(5-(Cyclohexyloxy)pyridin-3-yl)-3-(4-(pyridin-3-yl)-1H-benzo[d]imidazol-2-yl)-1H-pyrazolo[4,3-b]pyridine] | 2620 nM | 
1450 nM | 1140 nM | Oc1cncc(-c2ccc3[nH]nc(-c4nc5c(-c6cccnc6)cccc5[nH]4)c3n2)c1 [Compound 565, 5-(3-(4-(Pyridin-3-yl)-1H-benzo[d]imidazol-2-yl)-1H-pyrazolo[4,3-b]pyridin-5-yl)pyridin-3-ol] | 1730 nM | 
3050 nM | 2690 nM | c1cc(N2CCCCC2)c2nc(-c3n[nH]c4ccc(-c5cncc(OCCN6CCCC6)c5)nc34)[nH]c2c1 [Compound 610, 3-(4-(Piperidin-1-yl)-1H-benzo[d]imidazol-2-yl)-5-(5-(2-(pyrrolidin-1-yl)ethoxy)pyridin-3-yl)-1H-pyrazolo[4,3-b]pyridine] | 1970 nM | 
3770 nM | 4050 nM | COc1cncc(-c2ccc3[nH]nc(-c4nc5c(N6CCCCC6)cccc5[nH]4)c3n2)c1 [Compound 612, 5-(5-Methoxypyridin-3-yl)-3-(4-(piperidin-1-yl)-1H-benzo[d]imidazol-2-yl)-1H-pyrazolo[4,3-b]pyridine] | > 10000 nM | 26.9%
1550 nM | 2710 nM | Oc1cncc(-c2ccc3[nH]nc(-c4nc5c(N6CCCCC6)cccc5[nH]4)c3n2)c1 [Compound 613, 5-(3-(4-(Piperidin-1-yl)-1H-benzo[d]imidazol-2-yl)-1H-pyrazolo[4,3-b]pyridin-5-yl)pyridin-3-ol] | 3320 nM | 
1030 nM | 933 nM | CN1CCN(c2cccc3[nH]c(-c4n[nH]c5ccc(-c6cncc(OC7CCCCC7)c6)nc45)nc23)CC1 [Compound 639, 5-(5-(Cyclohexyloxy)pyridin-3-yl)-3-(4-(4-methylpiperazin-1-yl)-1H-benzo [d]imidazol-2-yl)-1H-pyrazolo[4,3-b]pyridine] | 1360 nM | 
1060 nM | 1040 nM | CN1CCN(c2cccc3[nH]c(-c4n[nH]c5ccc(-c6cncc(OCc7ccccc7)c6)nc45)nc23)CC1 [Compound 646, 5-(5-(Benzyloxy)pyridin-3-yl)-3-(4-(4-methylpiperazin-1-yl)-1H-benzo[d]imidazol-2-yl)-1H-pyrazolo[4,3-b]pyridine] | 1460 nM | 
